{
  "source": "patent US20090227556A1",
  "about": "“RECEPTOR TYROSINE KINASE INHIBITORS COMPRISING PYRIDINE AND PYRIMIDINE DERIVATIVES” (Eisai R&D Management Co., Ltd., priority 2008, published 2009)",
  "key": {"[1]": {"system": "human thyroid cancer cell line (TT)", "conditions": "subcutaneous TT model; cited from earlier work"}, "KIT": {"biological_target": "T1, KIT (Homo sapiens, UniProt P10721)", "T1 construct": "purchased Carna Biosciences Inc. 08-156", "T1 sequence (P10721 26-976)": "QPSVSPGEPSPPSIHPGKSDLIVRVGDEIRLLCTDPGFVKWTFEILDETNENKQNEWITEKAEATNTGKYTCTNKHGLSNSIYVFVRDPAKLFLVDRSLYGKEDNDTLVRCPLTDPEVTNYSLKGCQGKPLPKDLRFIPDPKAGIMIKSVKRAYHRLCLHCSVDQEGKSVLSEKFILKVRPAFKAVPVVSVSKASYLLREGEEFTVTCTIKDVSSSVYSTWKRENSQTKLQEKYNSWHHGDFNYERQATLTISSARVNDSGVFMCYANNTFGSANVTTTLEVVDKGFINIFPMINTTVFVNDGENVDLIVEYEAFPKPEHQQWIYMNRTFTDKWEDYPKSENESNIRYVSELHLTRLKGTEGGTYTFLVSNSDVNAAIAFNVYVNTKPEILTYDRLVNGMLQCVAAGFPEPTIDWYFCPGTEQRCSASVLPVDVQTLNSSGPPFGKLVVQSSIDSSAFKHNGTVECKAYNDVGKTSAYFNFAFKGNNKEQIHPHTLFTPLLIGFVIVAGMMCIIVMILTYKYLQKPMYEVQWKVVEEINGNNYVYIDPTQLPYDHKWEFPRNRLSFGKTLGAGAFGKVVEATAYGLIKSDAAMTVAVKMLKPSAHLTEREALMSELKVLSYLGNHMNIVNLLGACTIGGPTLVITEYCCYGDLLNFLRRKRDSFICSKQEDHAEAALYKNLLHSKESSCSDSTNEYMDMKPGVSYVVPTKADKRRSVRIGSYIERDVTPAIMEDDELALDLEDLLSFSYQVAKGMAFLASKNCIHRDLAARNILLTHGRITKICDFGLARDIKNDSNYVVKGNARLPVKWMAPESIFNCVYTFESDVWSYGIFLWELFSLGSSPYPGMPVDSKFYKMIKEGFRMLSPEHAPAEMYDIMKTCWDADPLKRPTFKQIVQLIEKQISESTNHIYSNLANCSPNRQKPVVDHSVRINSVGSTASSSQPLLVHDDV", "assay": "Inhibitory action on KIT (ELISA)", "assay_type": "biochemical", "conditions": "recombinant human kinase", "method": "A test compound was dissolved in dimethyl sulfoxide to make a 10 mM solution, which was stored in a dark place at 4° C. until use.\nProtein tyrosine kinases (recombinant human kinases) used in the study were the following products from Carna Biosciences Inc. (Kobe, Japan).\nVEGFR-1 (FLT 1) (product number: 08-189) VEGFR-3 (FLT 4) (product number: 08-190) RON (product number: 08-152) RET (product number: 08-159) KIT (product number: 08-156)\nKinase activity was measured in a mobility shift assay (MSA) method (J. Biomolecular Screening, 11, 359-368, 2006) using QuickScout Screening Assist™ (Carna Biosciences Inc., commercial kit), and enzyme-linked immunoassay (ELISA).\n10 μl of the test substance solution obtained by dissolving or suspending in the assay buffer (15 mM Tris, 0.01% Tween 20, 2 mM DTT, pH 7.5) (4× final concentration), or 10 μl of a solvent (4% dimethyl sulfoxide-assay buffer) was dispensed into a DELFIA Streptavidin-coated clear plate (PerkinElmer Inc., product number 4009-0010). Then, 10 μl of an ATP/substrate/metal solution of QuickScout Screening Assist™ ELISA was added. Additionally, 20 μl of the kinase solution diluted with the assay buffer was added to initiate a reaction. For a blank, only 20 μl of the assay buffer was added. The assay method was in accordance with the protocol of QuickScout Screening Assist™ ELISA. After the reaction, the absorbance at 450 nm in each well was measured using SpectraMax (Molecular Devices, California, U.S.A)."}, "[2]": {"system": "Human umbilical vein endothelial cells (HUVECs)", "assay": "Growth inhibitory activity on human umbilical vein endothelial cells stimulated by VEGF", "assay_type": "cell-based", "conditions": "HUVEC, 72 h, 3 days, Cell Counting Kit-8", "method": "Human umbilical vein endothelial cells (HUVECs) were isolated according to the reported method (Shin-seikagaku jikken kouza “saibou baiyou gijutu (Cell culturing techniques)” p. 197-202) and incubated to confluence using an EGM-2 culture medium (obtained from Sanko Junyaku Co., Ltd.) in a 5% CO2 incubator (37° C.). The HUVECs were collected by a trypsin-EDTA treatment and washed with a culture medium (2% fetal bovine serum-supplemented Human endothelial SFM basal medium, obtained from Invitrogen Corp.), followed by suspending them in the medium to count the cell number. By diluting it with the medium, a 2×10^4 cells/ml cell suspension was prepared. The cell suspension was dispensed into a 96-well plate (obtained from FALCON) by 100 μl each, and incubated at 37° C. in a 5% CO2 incubator overnight. After the incubation, 50 μl of the test substance diluted with the medium was added to each well, and 50 μL of 80 ng/ml human recombinant VEGF (obtained from R&D systems, Inc.) diluted with the medium was added and further incubated for 3 days in the 5% CO2 incubator (37° C.). After the incubation, 20 μl of Cell Counting Kit-8 (obtained from DOJINDO Laboratories) was added to each well, which were incubated for about 2 hours in the 5% CO2 incubator (37° C.). After the incubation, the absorbance of the each well was measured using a plate reader MTP-500 (Corona Electric Co., Ltd) with a measurement wavelength of 450 nm and a control wavelength of 660 nm. A ratio of absorbance (%) of each well with the test substance against the wells without the test substance was determined, and based on this ratio, the concentration of the test substance required to inhibit 50% of cell proliferation (IC50) was determined and the results are shown in Table 2."}, "[3]": {"biological_target": "T2, VEGFR-2 tyrosine kinase (His6-VEGFR-2, cytoplasmic domain) (Homo sapiens, UniProt P35968)", "T2 construct": "made in house; host or cells: Sf9 insect cells (baculovirus, pFastBac-HT)", "T2 sequence (P35968 786-1356 limits assumed)": "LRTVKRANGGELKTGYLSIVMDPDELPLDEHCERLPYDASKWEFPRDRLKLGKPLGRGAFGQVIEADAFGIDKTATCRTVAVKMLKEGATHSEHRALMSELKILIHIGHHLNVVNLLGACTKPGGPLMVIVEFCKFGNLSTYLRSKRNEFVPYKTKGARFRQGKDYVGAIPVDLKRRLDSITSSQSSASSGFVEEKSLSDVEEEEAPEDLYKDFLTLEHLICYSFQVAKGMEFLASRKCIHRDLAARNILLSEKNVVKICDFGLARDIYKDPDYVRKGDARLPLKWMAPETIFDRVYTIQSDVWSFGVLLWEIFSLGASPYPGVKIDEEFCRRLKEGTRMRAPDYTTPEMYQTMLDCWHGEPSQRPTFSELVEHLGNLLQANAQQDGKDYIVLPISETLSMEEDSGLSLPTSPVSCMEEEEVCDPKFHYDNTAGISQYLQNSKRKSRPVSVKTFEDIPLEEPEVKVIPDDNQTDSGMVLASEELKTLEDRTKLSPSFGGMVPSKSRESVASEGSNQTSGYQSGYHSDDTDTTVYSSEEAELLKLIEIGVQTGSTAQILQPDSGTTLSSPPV", "assay": "Inhibitory activity on VEGFR-2 tyrosine kinase (HTRF)", "assay_type": "biochemical", "conditions": "biotin-poly(GT) substrate", "description": "Cytoplasmic domain of VEGFR-2 (Genbank Accession No. L04947) is a 1.7 kb DNA fragment starting from lysine 791 and contains a stop codon, as described by Tarman et al. (Oncogene, 6(9), 1677-1683, 1991). This DNA fragment was isolated from a human placental cDNA library (obtained from Clontech Laboratories, Inc.) with two primers (obtained from TaKaRa Ex Taq™ Kit, TaKaRa) using a PCR method. This DNA fragment was cloned into a baculovirus transplace vector (pFastBac™-HT (obtained from GIBCO BRL)), to obtain a recombinant construct. An insect cell (Spodoptera frugiperda 9 (Sf9)) was transfected with it, and a VEGFR-2 recombinant baculovirus solution was prepared (preparation of the recombinant baculovirus can be found in a standard textbook (Bac-to-Bac Baculovirus Expression System (GIBCO BRL)).\nTo Sf9 cells (3×10^8 cells) suspended in a SF-90011 culture medium containing 2% FBS (obtained from Invitrogen Corp.), the above mentioned recombinant VEGFR-2 baculovirus solution (4 ml) was added and incubated with shaking at 27° C. for 48 hours. The recombinant VEGFR-2 baculovirus-infected cell culture was centrifuged at 4° C. at 1000 rpm for 5 minutes, and the supernatant was removed. The precipitated infected cells were suspended in 80 ml of ice-cold PBS, the suspension was centrifuged at 4° C. at 1000 rpm for 5 minutes, and the supernatant was removed. The precipitated infected cells were suspended in 40 ml of ice-cold Lysis Buffer (50 mM Tris-HCl (pH 8.5), 5 mM 2-mercaptoethanol, 100 mM KCl, 1 mM PMSF, and 1% (v/v) NP-40). This suspension was centrifuged at 4° C. at 12,000 rpm for 30 min to obtain a supernatant.\nThis supernatant was added to a Ni-NTA agarose column (3 ml, obtained from Qiagen) which had been equilibrated with 30 ml of Buffer A (20 mM Tris-HCl (pH 8.5), 5 mM 2-mercaptoethanol, 500 mM KCl, 20 mM imidazole, and 10% (v/v) glycerol). This column was washed sequentially with 30 ml of Buffer A, 6 ml of Buffer B (20 mM Tris-HCl (pH 8.5), 5 mM 2-mercaptoethanol, 1M KCl, and 10% (v/v) glycerol), and 6 ml of Buffer A. Then, to this column, 6 ml of Buffer C (20 mM Tris-HCl (pH 8.5), 5 mM 2-mercaptoethanol, 100 mM KCl, 100 mM imidazole, and 10% (v/v) glycerol) was added to obtain an eluate. This eluate was poured into a dialysis membrane (obtained from Spectrum Laboratories) and dialyzed with 1 liter of dialysis buffer (20 mM Tris-HCl (pH 7.5), 10% (v/v) glycerol, 1 mM DTT, 0.1 mM Na3VO4, 0.1 mM EGTA) at 4° C. overnight and stored at −80° C. until use. After the dialysis, a part of the eluate was subjected to a SDS electrophoresis, and the recombinant protein (His 6-VEGFR-2, a cytoplasmic domain of VEGFR-2 fused with 6 histidine residues on its N-terminus) detected at about 100 kDa Mw in Coomassie Brilliant Blue staining was subjected to protein quantification using BSA (obtained from Sigma Co. Ltd.) as a standard.\nIn each well of a 96-well round bottom plate (obtained from NUNC, product number 163320), 10 μl of a solution for kinase reaction (200 mM Hepes (pH 7.4), 80 mM MgCl2, 16 mM MnCl2, 2 mM Na3VO4), 250 ng of biotin-conjugated poly (Glu 4: Tyr 1) (biotin-poly (GT) obtained from Nihon Schering K.K.) (6 μl of 1/15 diluted solution with distilled water), 15 ng of His6-VEGFR-2 (10 μl of a 1/240 diluted solution with a 0.4% BSA solution), and a test substance solution in dimethyl sulfoxide (4 μl of 1/100 dilution with 0.1% BSA) were added to make a total volume of 30 μl. To them, 10 μl of 4 μM ATP (obtained from Sigma Co. Ltd.) diluted with distilled water was added, and the resultant was incubated for 10 minutes at 30° C., followed by addition of 10 μl of 500 mM EDTA (pH 8.0) (obtained from Wako Pure Chemical Industries, Ltd.) to obtain a kinase reaction solution.\nTo detect tyrosine-phosphorylated biotin-poly (GT), the Homogenous Time-Resolved Fluorescence (HTRF) method was used (Analytical Biochemistry, 269, 94-104, 1999). […]"}, "[4]": {"system": "NIH3T3 cells transformed by mutated RET", "conditions": "after injection of the cells to a nude mouse; cited from earlier work"}, "[5]": {"system": "NIH3T3 cells transformed by mutated RET", "conditions": "cited from earlier work"}},
  "data": [
    {"smiles": "CNC(=O)c1cc(Oc2ccc(NC(=O)Nc3ccc(Cl)c(C(F)(F)F)c3)cc2)ccn1", "note": "[BAY 43-9006]", "values": [
      {"measurement": "tumor size", "setting": "[1]", "value": "reduced a tumor size"}
    ]},
    {"smiles": "CN1CCN(C2CCN(C(=O)Nc3cc(Oc4ccc(NC(=O)C5(C(=O)Nc6ccc(F)cc6)CC5)c(F)c4)ccn3)CC2)CC1", "note": "[N-(2-Fluoro-4-{[2-({[4-(4-methylpiperazin-1-yl)piperidin-1-yl]carbonyl}amino)pyridin-4-yl]oxy}phenyl)-N′-(4-fluorophenyl)cyclopropane-1,1-dicarboxamide]", "values": [
      {"measurement": "IC50", "setting": "KIT", "value": 100, "unit": "nM"},
      {"measurement": "IC50", "setting": "[2]", "value": 82, "unit": "nM"},
      {"measurement": "IC50", "setting": "[3]", "value": 240, "unit": "nM"}
    ]},
    {"smiles": "COc1cc2c(Nc3ccc(Br)cc3F)ncnc2cc1OCC1CCN(C)CC1", "note": "[ZD6474]", "values": [
      {"measurement": "tumorigenesis", "setting": "[4]", "value": "inhibited tumorigenesis"},
      {"measurement": "anchorage-independent growth", "setting": "[5]", "value": "suppressed anchorage-independent growth"}
    ]}
  ]
}
